The test system of this assay is CEM cells HIV-1 protection, formazan growth assay. In words: NCI AIDS Antiviral Assay. The note with it: for IC50: measured here: growth of uninfected CEM cells. In short, it runs like this:
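Screen of anti-HIV-1 activity in human CEM cells using a formazan-based growth measurement at five drug concentrations. Hits with 50% or greater protection were repeated, and confirmation required reproducible complete protection.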

Structures are written as SMILES. Calls of active or inactive are those of the source.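 The calls were made as follows: active = compounds giving half or more protection of infected cells from virus-caused growth loss, again on retest; inactive = the rest.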 Where a SMILES comes first, the peptide text is derived from it. The star is where a group is joined. Cbz = O=C(OCc1ccccc1)*; Boc = CC(C)(C)OC(=O)*; OBn = c1ccc(CO*)cc1 Bounds are passed on as bounds.

For orientation: EC50 means the concentration that produces a half-maximal response. The term IC50 denotes the concentration that gives 50% inhibition. Low readings indicate inhibition by little substance, high ones a need for much substance. On to `Cc1ccc(S(=O)(=O)N/N=C(\c2nc3ccc(Cl)cc3[nH]c2=O)C(O)c2ccco2)cc1` (configuration not stated), for which the EC50 is greater than 275 µM and the IC50 turned out to be 17 µM.

For `CCOC(=O)Nc1ccc2nc(-c3cscn3)[nH]c2c1`, the EC50 was greater than 457 µM and the IC50 is 1.66 µM. On to `Cn1c(=O)n2n(c1=O)C1C3C4C3C3C5(COCC135)C42` (configuration not stated), for which the EC50 is greater than 200 µM and the IC50 was greater than 200 µM. `COC(=O)C(CCCCNC(=O)OCc1ccccc1)NC(=O)C(CCC(=O)OCc1ccccc1)NC(=O)OC(C)(C)C` (configuration not stated) (Boc-Glu(OBn)-Lys(Cbz)-OMe; configuration not given here): the EC50 is greater than 200 µM and the IC50 was greater than 200 µM. Turning to `C1=C(c2ccccc2)C(N2CCOCC2)Oc2ccccc21` (configuration not stated), the EC50 is greater than 200 µM and the IC50 was determined as 89.1 µM. As to `O=C1C2CN(Cc3ccccc3)CC1CN(CC1CC1)C2`, the EC50 was greater than 240 µM and the half-inhibitory concentration (IC50) was greater than 240 µM. Consider `CC(C(=O)ON1C(=O)CCC1=O)c1ccc(C(=O)c2ccccc2)s1` (configuration not stated), for which the EC50 was greater than 200 µM and the IC50 is greater than 200 µM.

For `CC1(C)OC(=O)C(=Cc2ccc(Br)cc2)C(=O)O1`, the EC50 is greater than 417 µM and the IC50 stood at 257 µM. The matching figures for `O=C(O)CSc1n[nH]c(-c2ccc(O)cc2)n1`: greater than 1000 µM and 977 µM. The matching figures for `O=C(CCc1ccccc1)On1c(-c2ccccc2)nc2ccccc2c1=S`: greater than 200 µM and 3.47 µM.

As for `C/C(C=C(C#N)C#N)=C\c1ccc(N(C)C)cc1`, the EC50 was greater than 21.9 µM and the IC50 is greater than 21.9 µM.

As to `O=C1OC(c2ccccc2)(c2ccccc2)c2ccc3ccc(F)cc3c21`, the outcome was inactive.

With `CC(=O)OCC1OC(Nc2[nH]c(=O)n(C)c(=O)c2-c2csc(N)n2)C(OC(C)=O)C(OC(C)=O)C1OC(C)=O` (configuration not stated), the result was inactive.

On to `COc1ccc(OC)c2c3c(ccc12)C1(CCc2c(C)cccc21)OC3=O` (configuration not stated), for which the EC50 is greater than 55 µM and the IC50 was 8.13 µM. The like results for `Nc1ncnc2c1sc(=S)n2-c1ccccc1` were, in that order, greater than 52.5 µM and greater than 52.5 µM.

For `N#Cc1nc(-c2ccsc2)oc1N`, the EC50 is greater than 200 µM and the IC50 was greater than 200 µM. Turning to `Cn1c(=O)c2nc3n(c2n(C)c1=O)C(=O)C(C#N)N=N3` (configuration not stated), the EC50 is greater than 200 µM and the IC50 is greater than 200 µM. With `CC1=NN(C(=O)CC(=O)Nc2ccccc2Cl)C(=O)C1N=Nc1ccc(C(=O)O)cc1` (configuration not stated), the EC50 is greater than 200 µM and the IC50 is 81.3 µM. The like results for `N#CC1C(=O)NC(=O)C1=O` (configuration not stated) were, in that order, greater than 1820 µM and greater than 1820 µM. Take `CC(C)CC(C(N)=O)C(=O)NC(Cc1ccccc1)NC(=O)CNC(=O)OC(C)(C)C` (configuration not stated): the EC50 is greater than 25.1 µM and the IC50 is greater than 25.1 µM. In the case of `O=C1C2CC[C@@H]3C(=O)C(Cl)(Cl)[C@@H]3CCC2C1(Cl)Cl` (some centres not stated), the EC50 was greater than 200 µM and the IC50 is greater than 200 µM. On to `CCN1CC2(COC)C(O)CC(OC)C34C5CC6(O)C(OC)C=C(C5C6OC(=O)c5ccc(OC)c(OC)c5)C(C(OC)C23)C14` (configuration not stated), for which the result was inactive. For the molecule `O=C(O)c1ccccc1/C=C1\Cc2ccccc2C1=O`, the EC50 is greater than 200 µM and the IC50 was determined as 120 µM. The like results for `Cc1cn(C2CC(N=[N+]=[N-])C(COC(=O)CCCCCCCCCCCF)O2)c(=O)[nH]c1=O` (configuration not stated) were, in that order, 0.162 µM and 2 µM.

For `COc1cc2c(c(OC)c1)C(C)=NC(C)C2` (configuration not stated), the EC50 was greater than 200 µM and the IC50 amounted to 141 µM. Take `COC1/C=C/OC2(C)Oc3c(C)c(O)c4c(O)c(c(C=NN5CCCCCCCCCC5)c(O)c4c3C2=O)NC(=O)/C(C)=C/C=C/C(C)C(O)C(C)C(O)C(C)C(OC(C)=O)C1C` (configuration not stated): the EC50 was greater than 200 µM and the IC50 worked out at 6.17 µM. As to `CC(C)C(=O)OCC1OC(n2c(Br)nc3c(=O)[nH]c(N)nc32)C(OC(=O)C(C)C)C1OC(=O)C(C)C` (configuration not stated), the EC50 is greater than 200 µM and the IC50 turned out to be 91.2 µM. The matching figures for `CCOP(=O)(CN1CCNCCNCC1)OCC`: greater than 200 µM and greater than 200 µM.

For the molecule `O=S1(=O)c2ccccc2N(c2ccccc2)C2=NCCN21`, the EC50 was greater than 120 µM and the IC50 was greater than 120 µM.

Regarding `Fc1cc(-c2ncc(Cl)cc2Cl)c2cccccc1-2`, the EC50 is greater than 100 µM and the IC50 is greater than 100 µM. For `COC1/C=C/OC2(C)Oc3c(C)c(O)c4c(O)c(c(/C=N/N5CC(C)(C)N(Cc6ccccc6)CC5(C)C)c(O)c4c3C2=O)NC(=O)C(C)=C/C=C/C(C)C(O)C(C)C(O)C(C)C(OC(C)=O)C1C` (configuration not stated), the EC50 was greater than 27.5 µM and the IC50 amounted to 3.31 µM. The like results for `COP(=O)(OC)C(Cc1cn(C(C)=O)c2ccccc12)C(=O)O` (configuration not stated) were, in that order, greater than 200 µM and greater than 200 µM. As to `O=C(Cn1c(=O)oc2ccc(C(=O)c3cccc(Cl)c3)cc21)c1ccccc1`, the EC50 is greater than 200 µM and the IC50 worked out at 56.2 µM. Turning to `COc1ccc(/C=N/NS(=O)(=O)c2ccc(NC(C)=O)cc2)cc1`, the EC50 was greater than 525 µM and the IC50 was greater than 525 µM. Consider `COc1c(O)ccc2oc3cc(O)cc(O)c3c(=O)c12`, for which the EC50 is greater than 200 µM and the IC50 was 145 µM. As for `C/C(CC(=O)Nc1ccc(NC(=O)C/C(C)=N\NC(N)=O)cc1)=N/NC(N)=O`, the EC50 was greater than 240 µM and the IC50 was greater than 240 µM. Consider `NC(=O)CCNC(=O)c1ccc(NC(=O)c2ccccc2SC(=O)CCCC[n+]2ccccc2)cc1`, for which the EC50 was 18.6 µM and the IC50 came to 45.7 µM. The matching figures for `CN(/N=C/c1ccccn1)C1=NCCCN1`: greater than 200 µM and greater than 200 µM. On to `CCOC(=O)C(CC[C@H]1c2[nH]c3ccccc3c2C[C@@H](C#N)N1C(=O)C(F)(F)F)C(=O)OCC`, for which the EC50 is greater than 20.9 µM and the IC50 was greater than 20.9 µM. For `CCn1cc(C(=O)O)c(=O)c2cc3c(cc21)OCO3`, the EC50 is greater than 38 µM and the IC50 was greater than 38 µM. As to `COc1cc(/C=C2\CCC(C)C3C2=NN(C(C)=O)C3c2cc(OC)c(OC)c(OC)c2)cc(OC)c1OC` (configuration not stated), the EC50 was greater than 100 µM and the half-inhibitory concentration (IC50) is greater than 100 µM.

Consider `COc1ccc(/C=C/C(=O)c2sc(N)nc2C)cc1`, for which the EC50 is greater than 912 µM and the IC50 was determined as 479 µM. With `CN(C)CCOCn1nnc2ccccc21`, the result was inactive.

On to `C[P+]1(C)CCc2c1ccc1ccccc21`, for which the outcome was inactive.

Consider `CCOC(=O)CC1c2ccc(O)cc2OC(=O)C1c1ccc([N+](=O)[O-])cc1` (configuration not stated), for which the EC50 is greater than 200 µM and the IC50 is 31.6 µM. The like results for `C=C1CC[C@@H](Br)C(C)(C)[C@]12CCC(C)(O)C(Cl)C2` (some centres not stated) were, in that order, greater than 77.6 µM and greater than 77.6 µM. The like results for `COc1cccc(C2SCC(=O)N2c2ccc(-n3c(-c4ccccc4)nc4ccccc4c3=O)cc2)c1OC` (configuration not stated) were, in that order, greater than 200 µM and greater than 200 µM. As to `Clc1nc(Cl)nc(Nc2cccc3ccccc23)n1`, the EC50 is greater than 200 µM and the IC50 turned out to be 107 µM.

In the case of `COc1cc2ccnc([C@@H](OC(=O)c3ccccc3)c3ccc(OC)c(OC)c3OC)c2cc1OC`, the result was inactive.

As to `CC(O[Si](c1ccccc1)(c1ccccc1)C(C)(C)C)[C@H](NC(=O)OC(C)(C)C)C(=O)O` (some centres not stated), the EC50 is greater than 40.7 µM and the IC50 is greater than 40.7 µM. Take `C1CN(/N=N/N2CCOCC2)CCO1`: the EC50 is greater than 200 µM and the IC50 is greater than 200 µM. On to `CC(/C=C/C(=O)c1sc(-n2nc(-c3ccccc3)cc2-c2ccccc2)nc1C)=C\c1ccccc1`, for which the EC50 was greater than 27.5 µM and the half-maximal inhibitory concentration (IC50) was greater than 27.5 µM.

With `NC1=C(c2nc(-c3ccccc3)cs2)C(c2ccco2)c2c(c3ccccc3oc2=O)O1` (configuration not stated), the EC50 is greater than 200 µM and the IC50 came out at 93.3 µM.

`C/C(=N\N(C)C)c1sc(-n2nc(-c3ccccc3)cc2-c2ccccc2)nc1C`: the EC50 was greater than 46.8 µM and the IC50 was greater than 46.8 µM. Take `CCc1c(Cc2cc(C)cc(C)c2)n(COCCSc2ccccc2)c(=O)[nH]c1=O`: the EC50 is 0.49 µM and the 50% inhibitory concentration (IC50) was 15.5 µM. The like results for `CN(C)/C=C/C(=O)c1cccc(C(=O)/C=C/N(C)C)n1` were, in that order, greater than 19.1 µM and greater than 19.1 µM.

As for `CCOC(=O)c1cc2c3c(c1)C(=O)C(C)CN3CC(C)C2=O` (configuration not stated), the result was inactive.

For the molecule `CCOC(=O)C1CCc2c1c(C#N)c1[nH]c3ccccc3n1c2=O` (configuration not stated), the EC50 is greater than 234 µM and the IC50 was greater than 234 µM.

Consider `Nc1ccc2c(c1)CC1c3ccccc3C(C2)c2ccccc21`, for which the result was inactive. As for `Cc1nc(C(N)=S)sc1C(/C=C/c1ccc(Cl)c(Cl)c1)=N/NC(C)(C)C`, the EC50 was greater than 117 µM and the IC50 was greater than 117 µM. Take `O=c1ccc(=O)n(CO)[nH]1`: the EC50 is greater than 1780 µM and the IC50 was 97.7 µM.

For `COc1nc2c(c(=O)n1C)N=C(c1ccccc1)[C@H](C(CC(=O)c1ccccc1)c1ccccc1)C(c1ccccc1)N2` (some centres not stated), the outcome was inactive. Turning to `CC(=O)ON1C(c2ccc([N+](=O)[O-])cc2)OCC2OC(n3cc(C)c(=O)[nH]c3=O)C[C@H]21` (some centres not stated), the EC50 is greater than 200 µM and the 50% inhibitory concentration (IC50) was greater than 200 µM. As for `CCC(CCCC[C@H]1CC[C@@H]2CC(=O)C[C@H]12)OC` (some centres not stated), the EC50 is greater than 200 µM and the IC50 is greater than 200 µM. As to `CC(C)c1ccc(/C=C2\CSCC3=C2N=C2SCC(=O)N2C3c2ccc(C(C)C)cc2)cc1` (configuration not stated), the EC50 was greater than 200 µM and the IC50 was 107 µM.

As for `CC(CCC(=O)O)C1CCC2C3C(O)CC4CC(O)CCC4(C)C3CC(O)C12C` (configuration not stated) (tested in a mixture with another compound), the EC50 is greater than 200 µM and the IC50 was greater than 200 µM. For the molecule `COC(=O)c1cc(C(=O)OC)c(C/C(=N/NC(=O)C[N+](C)(C)C)C(=O)Nc2cccc(C(F)(F)F)c2)nc1C/C(=N/NC(=O)C[N+](C)(C)C)C(=O)Nc1cccc(C(F)(F)F)c1`, the EC50 was greater than 200 µM and the IC50 stood at 105 µM. The like results for `O=C(N=c1ccc2nc(=O)[nH]n(O)c-2c1)C(F)(F)F` were, in that order, greater than 200 µM and 186 µM.

For the origin of these results see PubChem BioAssay AID179 (DTP/NCI, 2004).
